Measured values: BindingDB's records for doi:10.1021/ml300038t (2012)
pIC50: −log10 of the molar value.

Target: T1, 4,4'-diapophytoene synthase (Staphylococcus aureus, UniProt A9JQL9)
T1 sequence (A9JQL9 whole entry): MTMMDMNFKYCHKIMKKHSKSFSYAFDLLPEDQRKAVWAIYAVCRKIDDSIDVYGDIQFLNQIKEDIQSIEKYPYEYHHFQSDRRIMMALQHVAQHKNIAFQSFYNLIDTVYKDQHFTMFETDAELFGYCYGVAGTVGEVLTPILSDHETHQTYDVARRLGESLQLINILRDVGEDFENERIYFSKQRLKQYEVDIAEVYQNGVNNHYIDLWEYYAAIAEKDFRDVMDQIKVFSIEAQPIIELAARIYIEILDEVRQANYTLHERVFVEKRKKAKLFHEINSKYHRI
Assay: Inhibition of Staphylococcus aureus His6-tagged CrtM expressed in Escherichia coli BL21(DE3) using Farnesyl pyrophosphate as substrate incubated for 30 mins prior to substrate addition by continuous spectrophotometric assay

SMILES	pIC50
CCCCCCOc1cccc(CCCNC(=O)CC(=O)C(=O)O)c1	< 3.52
CCCCCCCCOc1ccc(C(=O)CC(=O)C(=O)O)cc1	< 3.52
